Source: patent US9517215B2, “Dermal matrix and production method thereof having synergistic effects comprising microparticles which provides tissue repair” (T.C. EGE UNIVERSITESI, priority 2013, dated 2016)

System: human dermal fibroblast cells (Invitrogen C-013-5C)
Test: Cell vitality of human dermal fibroblast cells after 24 h incubation
Format: cell-based
Procedure: The human dermal fibroblast cells, (Invitrogen C-013-5C) were cultured in humid conditions comprising 37±0.5° C. and 5% CO2 according to the instructions of the producer. […] Oxidative stress parameters such as total glutation, malondialdehyde, and superoxide dismutase and glutation peroxidase have been examined inside the cells that have been analyzed.

SMILES: Oc1ccc(C=Cc2cc(O)cc(O)c2)cc1 [Resveratrol solution, resveratrol]
- cytotoxic potential (cell vitality): not to have cytotoxic potential
- cell proliferation effect (concentrations corresponding to 50 μM resveratrol content): cell proliferation increasing effects
